The source of these data is patent US20260048040A1, “MTA-COOPERATIVE PRMT5 INHIBITORS FOR USE IN THE TREATMENT OF CANCER” (ASTRAZENECA AB, priority 2022, published 2026).

A short description of data set [1]: Tolerability / body weight in L540 HL xenograft model. The settings on record: all doses tested, PO, 21 days. The data set is classed as in vivo, Mouse (Mus Musculus). The procedure:
(§1) Control animals were dosed with vehicle (5% v/v DMSO/20% v/v Kolliphor HS15/75% v/v purified water (pH 3.0-3.2)) PO, and vehicle and Compound C treated animals were dosed according to Table 6. Dosing was initiated 1 day upon selection and randomization. On day 21 of dosing, all animals from each received the last dose in the morning. Mice were necropsied 6 h later and flash frozen tumors were collected for PD analysis.
(§2) • Tumors were measured twice weekly by caliper, and the volumes of tumors were calculated using the formula: Volume (mm^3)=(Tumor Length)×(Tumor width)×(Tumor width)/2 • Relative tumor volume (RTV) was calculated using the formula: RTV for day X=(Tumour volume on day X)/(Tumour volume on day 0) • The anti-cancer effect of Compound C was expressed as percent of tumor growth inhibition (TGI) calculated on last day of the study using the formula: • Percentage TGI on day X for treatment group=(((Geomean RTV Vehicle day X)−(Geomean RTV Treatment group day X))/((Geomean RTV Vehicle on day X)−1)×100 • Animals were weighted daily for the dosing phase and twice weekly for all other phases. Percentage of body weight change was calculated using the formula: Percentage body weight change on day X=(((Body weight day X)−(Body weight day of select)×100))
Tumor volumes were plotted as geometric means with SEM. Percentage of body weight change was plotted as means with SEM. […]

Data set [2] has as its system MTAP knock out (KO) HCT116 cells. In words: Proliferation assay, HCT116 MTAP knock out cells (Alamar Blue). In kind it is cell-based. As to conditions: Homo sapiens, HCT-116; HCT116, MTAP status KO, MTAP mRNA level low; average values from two or more experiments. The procedure: (§3) For the HCT116 isogenic cell line (the parental model purchased from ATCC, the MTAP KO clone generated in-house using CRISPR technology): Cells were harvested to a density of 400 cells per well (McCoys 5A+10% FCS+1% Glutamax), 40 μl/well seeded into 384-well plates (Greiner, Kremsmunster, Austria; 781090) using a Multidrop Combi. For Day 0 plates immediately add 4 μl Alamar Blue reagent (Thermo; DAL1100) using a multidrop combi and incubate for 3 h at 37° C., 5% CO2. Day 0 cell plates were measured using Envision plate reader with fluorescence excitation wavelength of 540-570 nm (peak excitation is 570 nm), fluorescence emission at 580-610 nm (peak emission is 585 nm). Test compounds were added using an Echo 555 and placed in incubator at 37° C., 5% CO2 and incubated for 4 more days. […], add 4 μl Alamar Blue reagent using a Multidrop Combi and incubate for 3 h at 37° C., 5% CO2. Day 4 cell plates were measured using EnVision plate reader with fluorescence excitation wavelength of 540-570 nm, fluorescence emission at 580-610 nm. The rate of proliferation (IC50 values) was determined using Genedata screener software by assessing the total cell number from the Envision plate reader for Day 0 and Day 4 plates.

Data set [3] concerns L428 cells. Put plainly: Proliferation assay, L428 Hodgkin Lymphoma cells (CellTiter Glo). The data set is classed as cell-based. As to conditions: Homo sapiens. The method, then:
(§4) For the Hodgkin Lymphoma cell lines L428, L540, L1236, HDLM2 and KM-H2 (purchased from DSMZ, http://www.dsmz.de): Assay Ready Plates were prepared by adding compounds to 384-well plates (Corning #3712) using Echo Liquid Handler. On day 0, 1200 cells/well of L428, L540, or KMH2 cells in 60 μl of growth media (RPMI1640+10% FBS+1% L-Glu+1% P/S) were dispensed into the Assay Ready Plates, 10 μM as final top concentration, with 1:3 dilution, and 10 doses total. The same volume was also dispensed into 1 empty plate for Day 0 control plate. 30 μl/well of CellTiter Glo reagent (Promega #7573) was added into Day 0 plate, incubate at room temperature for 20 min in dark, Measure luminescence on plate reader Tecan M200 using 100 ms integration time, Oms attenuation and settle times. The assay plates were incubated for 7 days in incubator with 37° C., 90% humidity, 5% CO2. Luminescence was measured as Day 0 control plate. IC50 was calculated using GraphPad Prism 8 with Nonlinear regression (curve fit) analysis.

Data set [4] deals with L1236 cells. In words: Proliferation assay, L1236 Hodgkin Lymphoma cells (CellTiter Glo). The data set is classed as cell-based. The procedure: as §4
Background: In ATP-based viability assays light output follows the ATP content of the culture.

Data set [5] relates to HDLM2 cells. Put plainly: Proliferation assay, HDLM2 Hodgkin Lymphoma cells (CellTiter Glo). In kind it is cell-based. As to conditions: Homo sapiens. The method, then: as §4
Alternatively, for HDLM2 (purchased from DSMZ): Cells were grown as […] cells in growth media (phenol red free RPMI+10% FCS+2 mM glutamine). Cells were seeded into 96-well clear-bottomed black tissue-culture treated plates at 1000 cells/well in 90 μl growth media and placed in an incubator at 37° C., 5% CO2. Compound was obtained in solution from the liquid bank at a concentration of 10 mM in DMSO then half-log serial dilutions performed in DMSO to make ×1000 fold stock solutions. Concentrations were then diluted 1 in 10 in DMSO followed by 1 in 10 in growth media to give an addition plate at x^10 final concentration in 10% DMSO. 10 μl compound was then added to 90 μl cell (1 in 10 dilution) to give a concentration range of 0.1 nM to 10 μM in 1% DMSO. CellTiter Glo readings were taken at the point of dosing and at 6 days. […] Read luminescence on Envision F (ultrasensitive luminescence 96-well protocol with 384 well aperture). IC50 was calculated using GraphPad Prism 8 with Nonlinear regression (curve fit) analysis.

For data set [6], the system named is L540 cells. In words: Proliferation assay, L540 Hodgkin Lymphoma cells (CellTiter Glo). In kind it is cell-based. As to conditions: Homo sapiens. The method, then:
as §4

The test system of data set [7] is MTAP silenced L540 HL xenograft. In words: Tumor growth inhibition in L540 HL xenograft model. The data set is classed as in vivo, Mouse (Mus Musculus). The settings on record: for TGI (%): 21 days of dosing, TGI measured day 21 (end of treatment), NOD/SCID mice. The procedure:
(§5) This study was performed to evaluate tumor growth inhibition and pharmacodynamic changes following treatment with the MTA synergistic PRMT5 inhibitor Compound C in the MTAP silenced L540 HL xenograft model. Three doses of Compound C (Dose Level 1, Dose Level 2 and Dose Level 3) were tested. Pharmacodynamic changes were assessed by western blot for a decrease in SDMA (marker of target engagement) following treatment with Compound C.
Xenografts were established by subcutaneous (SC) injection of 5×10^e6 cells suspended in 0.1 mL of PBS into the right front flank of 6-to 8-week-old animals. Tumors were allowed to reach 100-200 mm^3 before randomization. Tumors were measured by calliper and the volumes of tumors were calculated using the following formula: Volume (mm3)=(Tumor Length)×(Tumor width)×(Tumor width)/2 Tumor length (the longest tumor dimension); Tumor width (the longest tumor dimension perpendicular to length).
Animals were randomized into groups based on the size of the tumor. Randomization was performed based on “Matched distribution” method (StudyDirector™ software, version 3.1.399.19). The date of randomization is denoted as Day 0. There were no animal substitutions.
as §1, §2
Tumor volumes were plotted as geometric means with SEM. Percentage of body weight change was plotted as means with SEM. Significant p-values for TGI relative to vehicle treated controls (relative tumor volumes) at the last day of treatment, were obtained from a Mann-Whitney one-tailed test, and calculated by GraphPad Prism 8.4.3

The test system of data set [8] is wild type (wt) HCT116 cells. Put plainly: Proliferation assay, HCT116 wild type cells (Alamar Blue). The data set is classed as cell-based. As to conditions: Homo sapiens, HCT-116; HCT116, MTAP status wt, MTAP mRNA level high; average values from two or more experiments. The procedure:
as §3

The subject of data set [9] is SDMA (marker of target engagement). Put plainly: Pharmacodynamic analysis: SDMA western blot in L540 xenograft tumors. The settings on record: tumors collected 6 h after last dose on day 21, western blot normalized to vinculin. In kind it is in vivo, Mouse (Mus Musculus). The method, then:
as §5, §1
To determine levels of protein of interest in tumor samples, snap frozen tumor fragments at the end of the PD study were used and protein extracted by adding 600-1000 μl lysis buffer for small and large tumors, respectively. […] Lysates were transferred to a deepwell plate, and protein in the supernatant measured using BCA normalisation method (Thermofisher, #23225). […] The membranes were washed three times for 15 minutes each in 20 ml of TBST, and signal was detected using chemiluminescent SuperSignal West Dura extended duration substrate (Thermofisher, #34075) and quantified using Syngene software. The 30 kDa molecular weight band of PRMT5's substrate, SDMA, was quantified using Syngene software. The 110 kDa molecular weight band of vinculin was also quantified. […]
Primary analysis was carried out using Excel, where raw data was firstly normalised to vinculin, secondly to the geomean of vehicle control and then multiplied by 100. […] Significant p-values, if any, obtained from the ANOVA test, were quantified using GraphPad Prism 8.4.3.

Where [10] appears, read: L-428, L428, MTAP status wt, MTAP mRNA level high, average values from two or more experiments, read-out: IC50, proliferation.
Setting [11] is: L-1236, L1236, MTAP status wt, MTAP mRNA level low, average values from two or more experiments, read-out: IC50, proliferation.
The mark [12] stands for this setting: HDLM-2, HDLM2, MTAP status wt, MTAP mRNA level low, average values from two or more experiments, read-out: IC50, proliferation.
Where [13] appears, read: L-540, L540, MTAP status wt, MTAP mRNA level low, average values from two or more experiments, read-out: IC50, proliferation.

The structures appear in SMILES notation. Read-outs that look alike come from different tables or passages of the source.

In the case of `CC#CCN1CC[C@@]2(C1=O)c1ccc(F)cc1C(=O)N2Cc1cc2nc(N)c(F)cc2[nH]1` [Compound C, (S)-2-((5-Amino-6-fluoro-1H-pyrrolo[3,2-b]pyridin-2-yl)methyl)-1′-(but-2-yn-1-yl)-5-fluorospiro[isoindoline-1,3′-pyrrolidine]-2′,3-dione], the “Body weight loss during the treatment period compared to vehicle-treated group” value in data set [1] is listed as “no significant body weight loss”. In addition, the Tolerability entry in data set [1] is “well tolerated”. The IC50 was determined as 170 nM in data set [2]; 4640 nM in data set [3] (L-428, read-out: IC50, proliferation); 77 nM in data set [4] (L-1236, read-out: IC50, proliferation); 827 nM in data set [5] (HDLM-2, read-out: IC50, proliferation); 252 nM in data set [6] (L-540, read-out: IC50, proliferation); 8.54 µM in [8]. Besides, the “TGI (%)” value is recorded as 22% in data set [7] (Dose Level 1, PO); 52% in data set [7] (Dose Level 2, PO); 93% in [7] (Dose Level 3, PO). Moreover, the “Inhibition of tumour growth in vivo (in words)” value in data set [7] (Dose Levels 1-3, PO, L540 HL xenograft) was “dose-dependent efficacy”. The “Percentage Inhibition of SDMA” value in [9] (Dose Level 1, PO) came to 83.9%; in data set [9] (Dose Level 2, PO), 97.6%; in [9] (Dose Level 3, PO) it was 99.1%.

On to `CC(=O)N1CCC(Nc2cc(C(=O)NC[C@H](O)CN3CCc4ccccc4C3)ncn2)CC1` [Compound B, reference compound], for which the IC50 came out at 74 nM in [2]; 583 nM in [3] (setting [10]); 14 nM in data set [4] (setting [11]); 93 nM in [5] (setting [12]); 157 nM in data set [6] (setting [13]); 0.075 µM in data set [8].

For `Nc1nc2cc(CN3C(=O)c4cc(F)ccc4[C@]34CCN(Cc3ccc(F)cc3)C4=O)[nH]c2cc1F` [Compound A, (S)-2-((5-Amino-6-fluoro-1H-pyrrolo[3,2-b]pyridin-2-yl)methyl)-5-fluoro-1′-(4-fluorobenzyl)spiro[isoindoline-1,3′-pyrrolidine]-2′,3-dione], the IC50 in [2] was 158 nM; in data set [3] (setting [10]) it was 2520 nM; in data set [4] (setting [11]), 67 nM; in data set [5] (setting [12]), 39 nM; in data set [6] (setting [13]), 247 nM; in data set [8], above 20 µM.
